Test results from ChEMBL document CHEMBL4177667, “Design, synthesis, and anticancer properties of isocorydine derivatives” (Bioorg Med Chem, 2017).
The source made the active and inactive calls. No cut-off for these calls is given here.

Tests used:
HepG2 [1] = assay: cells; conditions: Homo sapiens, HepG2, 48 h
MGC-803 = assay: Antiproliferative activity against human MGC803 cells after 48 hrs by MTT assay; format: functional, cell-based; conditions: MGC-803, 48 h
HeLa = assay: cells; conditions: Homo sapiens, 48 h
HepG2 [2] = assay: Downregulation of Ki67 protein levels in human HepG2 cells after 48 hrs by Western blot analysis; format: functional, cell-based
HepG2 [3] = assay: Synergistic downregulation of beta-catenin protein levels in human HepG2 cells at 5 ug/ml after 48 hrs in presence of sorafenib by Western blot analysis; format: functional, cell-based
H22 [4] = assay: Antitumor activity against mouse H22 cells implanted in mouse assessed as tumor growth inhibition at 100 mg/kg, ip or ig qd administered for 10 consecutive days measured after 24 hrs post last dose relative to control; format: functional; conditions: read-out: TGI
HepG2 [5] = assay: Downregulation of C-myc protein levels in human HepG2 cells after 48 hrs by Western blot analysis; format: functional, cell-based
HepG2 [6] = assay: Downregulation of beta-Catenin protein levels in human HepG2 cells after 48 hrs by Western blot analysis; format: functional, cell-based
HepG2 [7] = assay: Downregulation of cyclin D1 protein levels in human HepG2 cells after 48 hrs by Western blot analysis; format: functional, cell-based
HepG2 [8] = assay: Synergistic downregulation of C-myc protein levels in human HepG2 cells at 5 ug/ml after 48 hrs in presence of sorafenib by Western blot analysis; format: functional, cell-based
H22 [9] = assay: Antitumor activity against mouse H22 cells implanted in mouse assessed as tumor growth inhibition at 50 mg/kg, ip or ig qd administered for 10 consecutive days measured after 24 hrs post last dose relative to control; format: functional; conditions: read-out: TGI
HepG2 [10] = assay: Synergistic downregulation of cyclin D1 protein levels in human HepG2 cells at 5 ug/ml after 48 hrs in presence of sorafenib by Western blot analysis; format: functional, cell-based
HepG2 [11] = assay: Synergistic downregulation of Ki67 protein levels in human HepG2 cells at 5 ug/ml after 48 hrs in presence of sorafenib by Western blot analysis; format: functional, cell-based
H22 [12] = assay: Synergistic antitumor activity against mouse H22 cells implanted in mouse assessed as tumor growth inhibition at 50 mg/kg, ip or ig qd administered for 10 consecutive days measured after 24 hrs post last dose in presence of sorafenib relative to control; format: functional; conditions: read-out: TGI
HepG2 [13] = assay: Synergistic upregulation of vementin protein levels in human HepG2 cells at 5 ug/ml after 48 hrs in presence of sorafenib by Western blot analysis; format: functional, cell-based
HepG2 [14] = assay: Upregulation of vimentin protein levels in human HepG2 cells at 2.5 to 10 ug/ml after 48 hrs by Western blot analysis; format: functional, cell-based
HepG2 [15] = assay: Cell cycle arrest in human HepG2 cells assessed as decrease in accumulation of cells at S phase at 4 ug/ml after 48 hrs by propidium iodide staining-based flow cytometric analysis; format: functional
HepG2 [16] = assay: Cell cycle arrest in human HepG2 cells assessed as increase in accumulation of cells at G0/G1 phase at 4 ug/ml after 48 hrs by propidium iodide staining-based flow cytometric analysis; format: functional
HepG2 [17] = assay: Upregulation of vimentin protein levels in human HepG2 cells at 4 ug/ml after 48 hrs by Western blot analysis; format: functional, cell-based
H22 [18] = assay: Antitumor activity against mouse H22 cells implanted in mouse assessed as tumor growth inhibition at 50 mg/kg, ip qd administered for 10 consecutive days measured after 24 hrs post last dose relative to control; format: functional; conditions: read-out: TGI

Row | Compound | IC50 (HepG2 [1]) [µM] | IC50 (MGC-803) [µM] | IC50 (HeLa) [µM] | also measured
1 | COc1cc(NC(=O)Nc2ccc(N3CCC(N)CC3)c(C(F)(F)F)c2)c2c(c1O)-c1c(OC)c(OC)cc3c1[C@H](C2)N(C)CC3 | 28.6 | 32.3 | 33.7 | 
2 | COc1cc(NC(=O)Nc2ccccc2Cl)c2c(c1O)-c1c(OC)c(OC)cc3c1[C@H](C2)N(C)CC3 | 36.7 | 35.2 | 36.9 | 
3 | COc1cc(NC(=O)Nc2ccc(C)cc2)c2c(c1OC(=O)Nc1ccc(C)cc1)-c1c(OC)c(OC)cc3c1[C@H](C2)N(C)CC3 | 16.1 | 25.6 | 19.1 | 
4 | COc1cc(NC(=O)c2ccccc2O)c2c(c1O)-c1c(OC)c(OC)cc3c1[C@H](C2)N(C)CC3 | 75.4 | 56.6 | 62.1 | 
5 | COc1cc(NC(=O)c2ccc(Cl)c(C(F)(F)F)c2)c2c(c1O)-c1c(OC)c(OC)cc3c1[C@H](C2)N(C)CC3 | 21.5 | 21.9 | 16.6 | 
6 | COc1cc(NC(=O)c2cccnc2)c2c(c1O)-c1c(OC)c(OC)cc3c1[C@H](C2)N(C)CC3 | 69.8 | 34.7 | 49.6 | 
7 | COc1cc(NC(=O)Nc2ccc(SC)cc2)c2c(c1O)-c1c(OC)c(OC)cc3c1[C@H](C2)N(C)CC3 | 53.2 | 47.8 | 46.6 | 
8 | COc1cc(NC(=O)Nc2ccc(C(F)(F)F)cc2)c2c(c1OC(=O)Nc1ccc(C(F)(F)F)cc1)-c1c(OC)c(OC)cc3c1[C@H](C2)N(C)CC3 | 44.1 | 39.3 | 47.7 | 
9 | COc1cc(NC(=O)Nc2ccc(N3CCC(CNC(=O)OC(C)(C)C)CC3)c(C(F)(F)F)c2)c2c(c1O)-c1c(OC)c(OC)cc3c1[C@H](C2)N(C)CC3 | 18.9 | 23.2 | 22.1 | 
10 | COc1cc(N)c2c(c1O)-c1c(OC)c(OC)cc3c1[C@H](C2)N(C)CC3 | 51.1 | 62.1 | 44.1 | 
11 | CCC(=O)NC1CCN(c2ccc(NC(=O)Nc3cc(OC)c(O)c4c3C[C@H]3c5c(cc(OC)c(OC)c5-4)CCN3C)cc2C(F)(F)F)CC1 | 28.5 | 32.5 | 33.4 | 
12 | COc1cc2c3c(c1O)-c1c(ccc(O)c1OC)C[C@@H]3N(C)CC2 | 154 | 124 | 109 | 
13 | COc1cc(NC(=O)Nc2ccccc2C)c2c(c1OC(=O)Nc1ccccc1C)-c1c(OC)c(OC)cc3c1[C@H](C2)N(C)CC3 | 31.4 | 22.8 | 43.9 | 
14 | COc1cc(NC(=O)/C=C/c2ccccc2)c2c(c1O)-c1c(OC)c(OC)cc3c1[C@H](C2)N(C)CC3 | 63.4 | 37.9 | 74.5 | 
15 | COc1cc(NC(=O)c2cc(Cc3n[nH]c(=O)c4ccccc34)ccc2F)c2c(c1O)-c1c(OC)c(OC)cc3c1[C@H](C2)N(C)CC3 | 30.2 | 27.2 | 29.6 | 
16 | COc1cc(NC(=O)Nc2ccc(N3CCC(CN)CC3)c(C(F)(F)F)c2)c2c(c1O)-c1c(OC)c(OC)cc3c1[C@H](C2)N(C)CC3 | 7.51 | 11.1 | 6.32 | Activity (HepG2 [2]): Dose-dependent effect; Activity (HepG2 [3]): Active; inhibition in vivo at 100 mg/kg (H22 [4]): 73.8%; Activity (HepG2 [5]): Dose-dependent effect; Activity (HepG2 [6]): Dose-dependent effect; Activity (HepG2 [7]): Dose-dependent effect; Activity (HepG2 [8]): Active; inhibition in vivo at 50 mg/kg (H22 [9]): 27.2%; Activity (HepG2 [10]): Active; Activity (HepG2 [11]): Active; inhibition in vivo at 50 mg/kg (H22 [12]): 66.5%; Activity (HepG2 [13]): Active; Activity (HepG2 [14]): Active
17 | COc1cc(NC(=O)Nc2ccccc2Cl)c2c(c1OC(=O)Nc1ccccc1Cl)-c1c(OC)c(OC)cc3c1[C@H](C2)N(C)CC3 | 17.2 | 26.9 | 27.1 | 
18 | CNC(=O)c1cc(Oc2ccc(NC(=O)Nc3ccc(Cl)c(C(F)(F)F)c3)cc2)ccn1 [SORAFENIB] |  |  |  | Activity (HepG2 [2]): Dose-dependent effect; Activity (HepG2 [15]): Active; Activity (HepG2 [16]): Active; Activity (HepG2 [5]): Dose-dependent effect; Activity (HepG2 [6]): Dose-dependent effect; Activity (HepG2 [7]): Dose-dependent effect; Activity (HepG2 [17]): Active; inhibition in vivo at 50 mg/kg (H22 [18]): 55.8 to 56.5%
19 | COc1cc(NC(=O)Nc2ccc(F)cc2)c2c(c1OC(=O)Nc1ccc(F)cc1)-c1c(OC)c(OC)cc3c1[C@H](C2)N(C)CC3 | 26.7 | 25.1 | 26.8 | 
20 | CCC(=O)NCC1CCN(c2ccc(NC(=O)Nc3cc(OC)c(O)c4c3C[C@H]3c5c(cc(OC)c(OC)c5-4)CCN3C)cc2C(F)(F)F)CC1 | 20.7 | 20.4 | 32.5 | 
21 | COc1ccc2c(c1O)-c1c(OC)c(OC)cc3c1[C@H](C2)N(C)CC3 [ISOCORYDINE] | > 200 | > 200 | > 200 | 
22 | COc1cc(NC(=O)Nc2ccc(C(F)(F)F)cc2)c2c(c1O)-c1c(OC)c(OC)cc3c1[C@H](C2)N(C)CC3 | 45.9 | 57.3 | 49 | 
23 | COc1cc(NC(=O)Nc2ccc(Cl)c(Cl)c2)c2c(c1O)-c1c(OC)c(OC)cc3c1[C@H](C2)N(C)CC3 | 28.4 | 30 | 21.7 | 
24 | COc1ccc2c(c1O)-c1c(O)c(OC)cc3c1[C@H](C2)N(C)CC3 [CORYTUBERINE] | > 200 | > 200 | > 200 | 
25 | COc1cc2c3c(c1O)-c1c(ccc(OC)c1OC)C[C@@H]3N(C)CC2 [CORYDINE] | > 200 | > 200 | > 200 | 
26 | COc1cc(NC(=O)Nc2ccc(N3CCC(NC(=O)OC(C)(C)C)CC3)c(C(F)(F)F)c2)c2c(c1O)-c1c(OC)c(OC)cc3c1[C@H](C2)N(C)CC3 | 25.9 | 28.7 | 26.7 | 
27 | COC1=CC(=O)c2cc3c4c(cc(OC)c(OC)c4c2C1=O)CCN3C | 40 | 49.6 | 31.3 | 
